The results in this text go back to patent publication US20050032783A1, “Use of CGRP antagonists in treatment and prevention of hot flushes in prostate cancer patients” (Boehringer Ingelheim International GmbH, priority 2003, published 2005).

Molecules are shown by their SMILES.

The test system of the assay is increased blood flow through the facial skin caused by endogenous CGRP. In words: Facial skin blood flow increase after trigeminal ganglion stimulation in marmosets (laser Doppler). Particulars: anaesthetised marmosets; i.v. 5 min before the 2nd and 3rd stimulation periods; trigeminal ganglion stimulation 10Hz, 2 mA, 2 msec, for 30 sec. Type of assay: in vivo. The text has this: The efficacy of the following test substances was characterised by determining the dose administered i.v. which reduces by 50% the increased blood flow through the skin of the face which has been brought about by endogenous CGRP: • (A) =1-[N^2-[3,5-dibromo-N-[[4-(3,4-dihydro-2(1H)-oxoquinazolin-3-yl)-1-piperidinyl]carbonyl]-D-tyrosyl]-L-lysyl]-4-(4-pyridinyl)-piperazine, • (B) =1-[4-amino-3,5-dibromo-N-[[4-(2,3,4,5-tetrahydro-2(1 H)-oxo-1,3-benzodiazepin-3-yl)-1-piperidinyl]carbonyl]-D-phenylalanyl]-4-(1-piperidinyl)-piperidine, • (AC) =(R,S)-1-[4-[4-(3,4-dihydro-2(1H)-oxoquinazolin-3-yl)-1-piperidinyl]-2-[(3,5-dibromo-4-methylphenyl)methyl]-1,4-dioxobutyl]-4-(4-methyl-1-piperazinyl)-piperidine, • (AM) =1-[4-amino-3,5-dibromo-N-[[4-(3,4-dihydro-2(1H)-oxoquinazolin-3-yl)-1-piperidinyl]carbonyl]-D-phenylalanyl]-4-(1-piperidinyl)-piperidine, • (DA =sumatriptan and • (DB) =zolmitriptan. Description of Method:
Marmosets of both sexes (300-400 g) are anaesthetised with pentobarbital (initially with 30 mg/kg, i.p., followed by infusion of 6 mg/kg/h, […].). The body temperature is maintained at 37° C. using a heating plate. Pancurmium is administered as a muscle relaxant (initially 1 mg/kg, 0.5 mg after each hour thereafter). The animal's head is secured in a stereotactical apparatus. After the skin on the head has been opened using a lengthwise incision, a small hole is drilled in the skull and a bipolar electrode (Rhodes SNES 100) is lowered into the trigeminal ganglion.
The petrous bone serves as a guide for placing the electrode (CCX-Digital X-ray apparatus). The position of the electrode in the ganglion is monitored at the end of each experiment. The stimulation parameters are: • 10Hz, 2 mA, 2 msec, for 30 sec.
The blood flow in the micro-vessels of the facial skin is determined by laser Doppler flow measurement using a PeriFlux Laser Doppler System.
The animals are exposed to 2 to 3 stimulation periods at intervals of 30 min in each case. The first stimulation serves as a reference value for the other stimulations. The test substances are administered i.v. 5 min before the 2nd and 3rd stimulation periods.
`Cc1c(Br)cc(C[C@H](CC(=O)N2CCC(N3Cc4ccccc4NC3=O)CC2)C(=O)N2CCC(N3CCN(C)CC3)CC2)cc1Br` (racemic) [Substance AC, (R,S)-1-[4-[4-(3,4-dihydro-2(1H)-oxoquinazolin-3-yl)-1-piperidinyl]-2-[(3,5-dibromo-4-methylphenyl)methyl]-1,4-dioxobutyl]-4-(4-methyl-1-piperazinyl)-piperidine]: the “50% dose = i.v. dose which reduces by 50% the increased blood flow through the facial skin caused by endogenous CGRP” value is given as 0.018 mg/kg.
Take `NCCCC[C@H](NC(=O)[C@@H](Cc1cc(Br)c(O)c(Br)c1)NC(=O)N1CCC(N2Cc3ccccc3NC2=O)CC1)C(=O)N1CCN(c2ccncc2)CC1` [Substance A, 1-[N^2-[3,5-dibromo-N-[[4-(3,4-dihydro-2(1H)-oxoquinazolin-3-yl)-1-piperidinyl]carbonyl]-D-tyrosyl]-L-lysyl]-4-(4-pyridinyl)-piperazine]: the “50% dose = i.v. dose which reduces by 50% the increased blood flow through the facial skin caused by endogenous CGRP” value is 0.003 mg/kg.
For the molecule `Nc1c(Br)cc(C[C@@H](NC(=O)N2CCC(N3Cc4ccccc4NC3=O)CC2)C(=O)N2CCC(N3CCCCC3)CC2)cc1Br` [Substance AM, 1-[4-amino-3,5-dibromo-N-[[4-(3,4-dihydro-2(1H)-oxoquinazolin-3-yl)-1-piperidinyl]carbonyl]-D-phenylalanyl]-4-(1-piperidinyl)-piperidine], the “50% dose = i.v. dose which reduces by 50% the increased blood flow through the facial skin caused by endogenous CGRP” value is listed as 0.046 mg/kg.
On to `Nc1c(Br)cc(C[C@@H](NC(=O)N2CCC(N3CCc4ccccc4NC3=O)CC2)C(=O)N2CCC(N3CCCCC3)CC2)cc1Br` [Substance B, 1-[4-amino-3,5-dibromo-N-[[4-(2,3,4,5-tetrahydro-2(1H)-oxo-1,3-benzodiazepin-3-yl)-1-piperidinyl]carbonyl]-D-phenylalanyl]-4-(1-piperidinyl)-piperidine], for which the “50% dose = i.v. dose which reduces by 50% the increased blood flow through the facial skin caused by endogenous CGRP” value was 0.042 mg/kg.
For `CNS(=O)(=O)Cc1ccc2[nH]cc(CCN(C)C)c2c1` [Substance DA, sumatriptan, reference compound], the “50% dose = i.v. dose which reduces by 50% the increased blood flow through the facial skin caused by endogenous CGRP” value amounted to 0.280 mg/kg.
Next, `CN(C)CCc1c[nH]c2ccc(C[C@H]3COC(=O)N3)cc12` [Substance DB, zolmitriptan, reference compound]: 0.035 mg/kg.
